Test results published in patent publication EP4556004A1 (priority 2023, dated 2025).

test system: HCoV-229E; assay: microbe, parasite or virus in culture; type: cell-based, Human coronavirus 229E; settings: not given

| Compound | IC50 [µM] |
| --- | --- |
| CC(C)=CCc1c(O)cc(O)c(C(=O)C(C)C)c1O [AH56-F3, 2-methyl-1-(2,4,6-trihydroxy-3-(3-methylbut-2-en-1-yl)phenyl)propan-1-one] | > 24 |
| CC(C)=CCc1c(O)cc(O)c(C(=O)C(C)C)c1O [AH62-F2, 2-methyl-1-(2,4,6-trihydroxy-3-(3-methylbut-2-en-1-yl)phenyl)propan-1-one] | < 3 |
| CC(C)=CCC1=C(O)C(C(=O)C(C)C)=C(O)C(CC=C(C)C)(CC=C(C)C)C1=O [Colupulone, Co-lupulone] | < 3 |
| Ad-lupulone | < 12 |

same assay, conditions: Human coronavirus 229E, Huh-7

| Compound | IC50 [µM] |
| --- | --- |
| CC(C)=CCC1=C(O)C(CC=C(C)C)(CC=C(C)C)C(=O)C(C(=O)CC(C)C)=C1O [AH6-F2, 3,5-dihydroxy-4,6,6-tris(3-methylbut-2-en-1-yl)-2-(3-methylbutanoyl)cyclohexa-2,4-dien-1-one] | < 3 |
| CCC(C)C(=O)C1=C(O)C(CC=C(C)C)=C(O)C(CC=C(C)C)(CC=C(C)C)C1=O (stereo not drawn) [AH8-F2, 3,5-dihydroxy-4,6,6-tris(3-methylbut-2-en-1-yl)-2-(2-methylbutanoyl)cyclohexa-2,4-dien-1-one] | < 12 |
| CCCC(=O)C1=C(O)C(CC=C(C)C)=C(O)C(CC=C(C)C)(CC=C(C)C)C1=O [AH10-F2, 2-butyryl-3,5-dihydroxy-4,6,6-tris(3-methylbut-2-en-1-yl)cyclohexa-2,4-dien-1-one] | < 3 |
| CC(=O)C1=C(O)C(CC=C(C)C)=C(O)C(CC=C(C)C)(CC=C(C)C)C1=O [AH16-F2, 2-acetyl-3,5-dihydroxy-4,6,6-tris(3-methylbut-2-en-1-yl)cyclohexa-2,4-dien-1-one] | < 12 |
| CCC(=O)C1=C(O)C(CC=C(C)C)=C(O)C(CC=C(C)C)(CC=C(C)C)C1=O [AH17-F2, 3,5-dihydroxy-4,6,6-tris(3-methylbut-2-en-1-yl)-2-propionylcyclohexa-2,4-dien-1-one] | > 24 |
| CCCCC(=O)C1=C(O)C(CC=C(C)C)=C(O)C(CC=C(C)C)(CC=C(C)C)C1=O [AH18-F4, 3,5-dihydroxy-4,6,6-tris(3-methylbut-2-en-1-yl)-2-pentanoylcyclohexa-2,4-dien-1-one] | < 12 |
| CC(C)=CCC1=C(O)C(CC=C(C)C)(CC=C(C)C)C(=O)C(C(=O)CCC(C)C)=C1O [AH39-F1, 3,5-dihydroxy-4,6,6-tris(3-methylbut-2-en-1-yl)-2-(4-methylpentanoyl)cyclohexa-2,4-dien-1-one] | < 12 |
| CCC(C)CC(=O)C1=C(O)C(CC=C(C)C)=C(O)C(CC=C(C)C)(CC=C(C)C)C1=O (stereo not drawn) [AH40-F1, 3,5-dihydroxy-4,6,6-tris(3-methylbut-2-en-1-yl)-2-(3-methylpentanoyl)cyclohexa-2,4-dien-1-one] | < 12 |
| CC(C)=CCC1=C(O)C(CC=C(C)C)(CC=C(C)C)C(=O)C(C(=O)C=Cc2ccccc2)=C1O [AH41-F1, 2-cinnamoyl-3,5-dihydroxy-4,6,6-tris(3-methylbut-2-en-1-yl)cyclohexa-2,4-dien-1-one] | < 12 |
| CC(C)=CCC1=C(O)C(CC=C(C)C)(CC=C(C)C)C(=O)C(C(=O)/C=C/c2ccc(C(F)(F)F)cc2)=C1O [AH44-F2, (E)-3,5-dihydroxy-4,6,6-tris(3-methylbut-2-en-1-yl)-2-(3-(4-(trifluoromethyl)phenyl)acryloyl)cyclohexa-2,4-dien-1-one] | < 12 |
| CC(C)=CCC1=C(O)C(CC=C(C)C)(CC=C(C)C)C(=O)C(C(=O)c2ccccc2)=C1O [AH47-F3, 2-benzoyl-3,5-dihydroxy-4,6,6-tris(3-methylbut-2-en-1-yl)cyclohexa-2,4-dien-1-one] | < 12 |
| CC(=O)c1c(O)c(CC=C(C)C)c(O)c(CC=C(C)C)c1O [AH52-F1, 1-(2,4,6-trihydroxy-3,5-bis-(3-methylbut-2-en-1-yl)phenyl)ethan-1-one] | > 24 |
| CC(C)=CCC1C(=O)C(C(=O)CC(C)C)=C(O)C=C1O (stereo not drawn) [AH55-F3, 3,5-dihydroxy-6-(3-methylbut-2-en-1-yl)-2-(3-methylbutanoyl)cyclohexa-2,4-dien-1-one] | < 24 |
| CCC(C)C(=O)c1c(O)cc(O)c(CC=C(C)C)c1O (stereo not drawn) [AH57-F3, 2-methyl-1-(2,4,6-trihydroxy-3-(3-methylbut-2-en-1-yl)phenyl)butan-1-one] | < 24 |
| CC(C)=CCC1(CC=C(C)C)C(=O)C(C(=O)C(C)C)=C(O)C(C(=O)C(C)C)=C1O [AH66-F1, 1,1'-(2,4-dihydroxy-5,5-bis(3-methylbut-2-en-1-yl)-6-oxocyclohexa-1,3-diene-1,3-diyl)bis(2-methylpropan-1-one)] | < 12 |
| CC(C)=CCC1=C(O)C(CC=C(C)C)(CC=C(C)C)C(=O)C(C(=O)CCCCCNc2ccc([N+](=O)[O-])c3nonc23)=C1O [AH77-F1, 3,5-dihydroxy-4,6,6-tris(3-methylbut-2-en-1-yl)-2-(6-((7-nitrobenzo[c][1,2,5]oxadiazol-4-yl)amino)hexanoyl)cyclohexa-2,4-dien-1-one] | < 12 |
| CC(C)=CCC1=C(O)[C@](O)(CC=C(C)C)C(=O)C(C(=O)C(C)C)=C1O [Co-humulone, reference compound] | > 24 |
| CC(C)=CCC1=C(O)[C@](O)(CC=C(C)C)C(=O)C(C(=O)CC(C)C)=C1O [Humulone, reference compound] | > 24 |
| CC(C)=CCC1(CC=C(C)C)C(=O)CC(O)=C(C(=O)CC(C)C)C1=O [LB68-F3, 5-hydroxy-2,2-bis(3-methylbut-2-en-1-yl)-4-(3-methylbutanoyl)cyclohex-4-ene-1,3-dione] | < 12 |
| CC(C)=CCC1=C(O)C(CC=C(C)C)(CC=C(C)C)C(=O)C(C(=O)C(C)C)=C1O [LB.70-F2, 3,5-dihydroxy-4,6,6-tris(3-methylbut-2-en-1-yl)-2-(2-methylpropanoyl)cyclo-hexa-2,4-dien-1-one] | < 3 |
| CC(C)=CCC1=C(O)C(C(=O)CC(C)C)=C(O)C(CC=C(C)C)(CC=C(C)C)C1=O [Lupulone] | < 3 |

test system: SARS-CoV-2; assay: SARS-CoV-2 antiviral assay in human primary epithelial nasal cells (Mucilair); type: cell-based, severe acute respiratory syndrome coronavirus-2; settings: not given

| Compound | reduction of SARS-CoV-2 infection |
| --- | --- |
| CC(C)=CCC1=C(O)C(C(=O)C(C)C)=C(O)C(CC=C(C)C)(CC=C(C)C)C1=O [Colupulone, Co-lupulone] | able to reduce |

test system: HCoV-229E; assay: not given; type: cell-based, Human coronavirus 229E; settings: not given

| Compound | reduction of HCoV-229E infection |
| --- | --- |
| CC(C)=CCC1=C(O)C(C(=O)C(C)C)=C(O)C(CC=C(C)C)(CC=C(C)C)C1=O [Colupulone, Co-lupulone] | able to reduce |
